pEC50, pIC50: −log10 of the molar value. Structures can show the parent of a compound that is named as a salt.
Assays:
human SMG1 enzyme = human SMG1 enzyme (Homo sapiens, UniProt Q96Q15); test: Measurement of SMG1 kinase activity (ADP-Glo Kinase Assay); assay type: biochemical; details: purified human SMG1 enzyme 5 nM, Upf1 peptide substrate, ATP 4 μM; qAC50 synonymous with IC50; read-out: Test Example 1 ADP-Glo IC50
Source text: The SMG1 kinase inhibitory activity of a compound of the present invention or a pharmaceutically acceptable salt thereof can be measured, for example, by the method described below. Using purified human SMG1 protein and a substrate peptide as materials, the kinase activity can be measured by the ADP-Glo Kinase Assay; the SMG1 kinase inhibitory activity of a test substance can be evaluated by comparing the kinase activity in the presence and absence of the test substance.
The reaction was performed by the ADP-Glo Kinase Assay (Promega, catalog number V9102) using a 384-well plate under the conditions of an assay buffer (100 mM HEPES (pH 7.5), 50 mM NaCl, 10 mM MnCl2, 0.01% BSA, 0.1% Tween 20.5 mM TCEP). After incubating a test substance (DMSO solution; final DMSO concentration: 1%) and purified human SMG1 enzyme (Genes Dev. 2011 Jan. 15; 25(2): 153-164, produced by Daiichi Sankyo RD Novare Co., Ltd.; final concentration: 5 nM) at room temperature for 15 minutes, a substrate, Upf1 peptide (Biotin-(PEG8) QIDVALSQDSTYQG, produced by Eurofins genomics; final concentration: 8 μg/mL), and ATP (Promega: 4 μM) were added, and the mixture was reacted at room temperature for 60 minutes (see Non-Patent Literature R. Melero, et al., Structure Volume 22, Issue 8, 5 Aug. 2014, Pages 1105-1119 for the Upf1 peptide). ADP-Glo Reagent was added, and the mixture was reacted at room temperature for 40 minutes. Kinase Detection Reagent was added, and the mixture was reacted for another 30 minutes. The luminescence intensity was measured using EnVision (PerkinElmer).
The activity value (%) of the test substance-added well was calculated from the following formula, where the average luminescence intensity of the DMSO-added well was 0% and the average luminescence intensity of the SMG1 enzyme-free well was −100%.
The qAC50 (compound concentration showing 50% inhibition, synonymous with IC50) of the test substance was calculated using the activity value (%) at each concentration by Smart fit of Screener (Genedata). Smart fit is a general 4-parameter logistic regression model.

[1] = system: Snhg1 transcript (NMD target gene) in EMT6 murine breast cancer cell line; test: Measurement of NMD inhibitory activity in cells (increase in Snhg1 transcript, real-time PCR); parameters: species or system mouse; details: Mus musculus, 6 hours treatment, concentration giving 1/2 of maximum Snhg1 fold change of positive control, read-out: Test Example 2 Cell-based Snhg1 EC50
Experimental: The NMD inhibitory activity of a compound of the present invention or a pharmaceutically acceptable salt thereof in cells can be measured, for example, by the method described below. EMT6 murine breast cancer cell line is treated with a test substance in vitro for 6 hours, and the increase in the transcript of Snhg1, a known NMD target gene, is quantified as an indicator of NMD inhibition. Quantification is performed by real-time PCR.
NMD inhibitory activity was measured by treating EMT6 murine breast cancer cell line (ATCC) with a test substance and quantifying the increase in the transcript of Snhg1, an NMD target gene (see F. Usui, et al., Scientific Reports volume 9, Article number: 1279 (2019) for the NMD target gene). That is, EMT6 cells were suspended in Waymouth's medium (Gibco, 15% FBS) and seeded in a 96-well plate at 2×10^4 cells/well. The cells were cultured for 1 day. The next day, serially diluted test substance (DMSO solution, final DMSO concentration: 2%) was added. After culturing for 6 hours, the supernatant was removed, and RNA was extracted using the RNeasy 96 kit (QIAGEN, 74182). After synthesizing cDNA using the High Capacity cDNA Reverse Transcription kit (Applied Biosystems, 4368813), the cDNA was mixed with PrimeTime Gene Expression Master Mix (Integrated DNA Technologies) and various probes, and gene expression was quantified using QuantStudio 6 Flex (Thermo Fisher Scientific Inc.). For the probe for the Snhg1 gene, which is an NMD target, Mm.PT.58.44039547 (FAM)(Integrated DNA Technologies) was used, and for the probe for the Tbp gene, which is an endogenous control, Mm00446973_m1 Tbp (VIC-PL) (Applied Biosystems) was used. The relative quantification of Snhg1 transcripts was calculated by the ΔΔCT method, using Thp as an endogenous control and setting the expression level of Snhg1 in untreated wells to 1.
A known NMD inhibitory compound (pyrimidine derivative Example 11i, Bioorg Med Chem Lett. 2012, 22(21), 6636-41) was used as a positive control drug for NMD inhibition. The NMD inhibitory activity of the test substance-added well was calculated as follows: the maximum fold change in Sngh1 expression in the positive control drug-added well relative to that in the untreated well was defined as the maximum NMD inhibitory activity, and the EC50 (compound concentration showing 50%/activity) of the test substance showing a ½-fold change was calculated by the GROWTH function of Microsoft Excel.

Sequence of human SMG1 enzyme (Q96Q15 whole entry): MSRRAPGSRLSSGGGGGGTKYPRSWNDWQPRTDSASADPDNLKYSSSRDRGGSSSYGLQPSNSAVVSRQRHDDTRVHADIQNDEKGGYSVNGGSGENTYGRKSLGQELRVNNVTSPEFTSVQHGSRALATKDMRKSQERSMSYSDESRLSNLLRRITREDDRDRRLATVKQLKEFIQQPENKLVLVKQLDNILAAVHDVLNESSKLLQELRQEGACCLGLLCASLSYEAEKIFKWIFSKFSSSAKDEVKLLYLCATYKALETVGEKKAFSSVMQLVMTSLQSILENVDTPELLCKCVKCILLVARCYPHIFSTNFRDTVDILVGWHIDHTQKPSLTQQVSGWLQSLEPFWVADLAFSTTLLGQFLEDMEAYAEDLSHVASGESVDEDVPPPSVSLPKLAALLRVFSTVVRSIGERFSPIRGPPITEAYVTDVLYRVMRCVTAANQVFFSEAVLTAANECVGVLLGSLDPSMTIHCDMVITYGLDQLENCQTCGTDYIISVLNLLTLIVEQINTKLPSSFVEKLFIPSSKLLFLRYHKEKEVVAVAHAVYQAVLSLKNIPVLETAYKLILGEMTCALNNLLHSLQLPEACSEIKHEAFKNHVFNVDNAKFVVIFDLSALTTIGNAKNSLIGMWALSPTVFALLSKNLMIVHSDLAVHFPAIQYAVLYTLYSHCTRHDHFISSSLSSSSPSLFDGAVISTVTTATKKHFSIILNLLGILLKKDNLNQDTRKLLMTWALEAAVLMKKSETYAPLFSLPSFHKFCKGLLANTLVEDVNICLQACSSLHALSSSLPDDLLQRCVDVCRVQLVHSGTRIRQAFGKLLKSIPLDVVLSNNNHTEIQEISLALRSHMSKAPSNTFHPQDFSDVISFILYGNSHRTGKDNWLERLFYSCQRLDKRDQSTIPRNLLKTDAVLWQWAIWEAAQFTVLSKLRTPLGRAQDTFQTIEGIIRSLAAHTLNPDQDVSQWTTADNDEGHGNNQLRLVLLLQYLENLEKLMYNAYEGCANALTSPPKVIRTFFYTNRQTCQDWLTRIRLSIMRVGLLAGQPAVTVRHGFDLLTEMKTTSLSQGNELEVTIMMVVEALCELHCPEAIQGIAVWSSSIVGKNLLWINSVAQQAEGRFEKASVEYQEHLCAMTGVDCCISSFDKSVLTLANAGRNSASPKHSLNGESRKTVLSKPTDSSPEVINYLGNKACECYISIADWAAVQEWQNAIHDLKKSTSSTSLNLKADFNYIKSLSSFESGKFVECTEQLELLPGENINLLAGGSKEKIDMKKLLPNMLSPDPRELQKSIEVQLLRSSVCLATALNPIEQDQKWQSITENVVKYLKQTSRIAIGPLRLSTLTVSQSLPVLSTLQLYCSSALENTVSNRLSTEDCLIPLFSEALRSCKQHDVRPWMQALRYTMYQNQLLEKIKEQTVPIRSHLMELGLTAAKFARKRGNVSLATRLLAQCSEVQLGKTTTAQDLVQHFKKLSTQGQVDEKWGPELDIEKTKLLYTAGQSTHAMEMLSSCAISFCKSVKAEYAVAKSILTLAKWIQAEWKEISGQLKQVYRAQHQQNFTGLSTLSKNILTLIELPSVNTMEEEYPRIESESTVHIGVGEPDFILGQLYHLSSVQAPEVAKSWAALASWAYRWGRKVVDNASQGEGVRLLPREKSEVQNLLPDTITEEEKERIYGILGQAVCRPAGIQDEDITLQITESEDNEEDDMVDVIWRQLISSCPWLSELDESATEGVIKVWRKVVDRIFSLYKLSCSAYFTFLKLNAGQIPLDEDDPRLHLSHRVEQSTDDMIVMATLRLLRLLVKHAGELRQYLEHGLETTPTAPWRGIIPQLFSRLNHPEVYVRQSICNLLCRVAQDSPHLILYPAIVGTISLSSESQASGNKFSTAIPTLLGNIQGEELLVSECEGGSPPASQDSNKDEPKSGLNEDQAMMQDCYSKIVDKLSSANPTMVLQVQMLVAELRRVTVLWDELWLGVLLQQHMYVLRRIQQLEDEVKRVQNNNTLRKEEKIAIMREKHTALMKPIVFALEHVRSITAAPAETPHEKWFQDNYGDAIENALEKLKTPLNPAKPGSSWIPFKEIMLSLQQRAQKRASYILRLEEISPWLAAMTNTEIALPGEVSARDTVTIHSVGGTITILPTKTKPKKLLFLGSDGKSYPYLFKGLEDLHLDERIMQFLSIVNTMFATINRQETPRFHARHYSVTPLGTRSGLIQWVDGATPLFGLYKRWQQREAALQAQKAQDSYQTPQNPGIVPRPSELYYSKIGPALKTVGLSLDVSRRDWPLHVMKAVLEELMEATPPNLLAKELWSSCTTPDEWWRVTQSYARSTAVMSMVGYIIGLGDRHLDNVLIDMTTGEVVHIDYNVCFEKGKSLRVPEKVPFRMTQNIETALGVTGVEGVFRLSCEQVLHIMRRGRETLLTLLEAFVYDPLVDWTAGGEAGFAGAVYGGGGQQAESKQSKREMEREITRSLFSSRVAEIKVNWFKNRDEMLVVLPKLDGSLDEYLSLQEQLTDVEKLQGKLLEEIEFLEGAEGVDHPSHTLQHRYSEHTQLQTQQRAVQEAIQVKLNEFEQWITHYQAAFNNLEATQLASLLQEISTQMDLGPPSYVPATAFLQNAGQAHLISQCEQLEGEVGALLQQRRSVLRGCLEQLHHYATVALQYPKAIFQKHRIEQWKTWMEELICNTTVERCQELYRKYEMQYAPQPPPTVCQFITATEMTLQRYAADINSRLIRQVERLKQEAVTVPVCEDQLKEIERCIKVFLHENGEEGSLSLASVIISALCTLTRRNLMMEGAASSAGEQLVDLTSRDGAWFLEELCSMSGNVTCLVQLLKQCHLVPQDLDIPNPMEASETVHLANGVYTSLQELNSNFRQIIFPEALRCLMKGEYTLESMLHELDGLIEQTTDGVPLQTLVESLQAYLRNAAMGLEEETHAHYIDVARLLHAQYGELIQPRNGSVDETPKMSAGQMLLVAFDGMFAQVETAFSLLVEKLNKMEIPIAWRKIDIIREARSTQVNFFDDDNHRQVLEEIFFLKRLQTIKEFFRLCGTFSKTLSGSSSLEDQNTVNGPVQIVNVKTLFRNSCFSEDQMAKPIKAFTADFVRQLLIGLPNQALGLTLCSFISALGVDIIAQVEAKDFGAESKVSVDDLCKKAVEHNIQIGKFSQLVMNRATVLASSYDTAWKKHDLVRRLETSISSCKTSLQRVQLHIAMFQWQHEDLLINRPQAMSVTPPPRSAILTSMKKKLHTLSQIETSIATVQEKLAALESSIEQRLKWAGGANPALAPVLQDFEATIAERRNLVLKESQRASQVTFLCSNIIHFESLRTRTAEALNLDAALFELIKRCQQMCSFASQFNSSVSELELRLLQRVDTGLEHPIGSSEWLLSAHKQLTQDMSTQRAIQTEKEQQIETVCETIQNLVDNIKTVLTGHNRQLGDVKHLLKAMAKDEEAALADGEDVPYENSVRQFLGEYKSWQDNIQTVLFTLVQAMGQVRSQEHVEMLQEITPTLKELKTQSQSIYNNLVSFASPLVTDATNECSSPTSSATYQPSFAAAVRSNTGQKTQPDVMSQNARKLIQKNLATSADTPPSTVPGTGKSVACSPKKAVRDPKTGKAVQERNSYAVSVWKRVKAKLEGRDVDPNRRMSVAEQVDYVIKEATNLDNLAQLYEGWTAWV

pIC50 (human SMG1 enzyme)	pEC50 [1]	Compound
8.82	7.13	Cc1nn(CC2CC2)c(C)c1-c1nccc2[nH]c(=O)c(-c3nc4cnc(Cl)cc4[nH]3)cc12 [Example 90, 3-(6-chloro-1H-imidazo[4,5-c]pyridin-2-yl)-5-[1-(cyclopropylmethyl)-3,5-dimethyl-1H-pyrazol-4-yl]-1,6-naphthyridin-2(1H)-one]
8.55	7.12	O=C1Nc2ccnc(-c3ccccc3Cl)c2CN1c1nc2cnc(Cl)cc2[nH]1 [Example 102, 3-(6-chloro-1H-imidazo[4,5-c]pyridin-2-yl)-5-(2-chlorophenyl)-3,4-dihydropyrido[4,3-d]pyrimidin-2(1H)-one]
8.85	8.07	CC(C1CCOCC1)N(C)c1nc(Cl)cc2[nH]c(-c3cc4cnccc4[nH]c3=O)nc12 (centres unmarked) [Example 6, 3-(6-chloro-4-{methyl[1-(tetrahydro-2H-pyran-4-yl)ethyl]amino}-1H-imidazo[4,5-c]pyridin-2-yl)-1,6-naphthyridin-2(1H)-one]
8.92	7.29	CCc1nc(Cl)cc2[nH]c(-c3cc4c(-c5cnc(C6CC6)cc5OC(F)F)nccc4[nH]c3=O)nc12 [Example 75, 3-(6-chloro-4-ethyl-1H-imidazo[4,5-c]pyridin-2-yl)-5-[6-cyclopropyl-4-(difluoromethoxy)pyridin-3-yl]-1,6-naphthyridin-2(1H)-one]
9.00	8.70	Cc1c2cccc1-c1nccc3[nH]c(=O)c(cc13)-c1nc3c(nc(Cl)cc3[nH]1)N(C)CCCN(C)C2=O [Example 108, 7-chloro-10,14,30-trimethyl-3,8,10,14,22,26,31-heptaazahexacyclo[19.6.2.1^2,5.1^16,20.0^4,9.0^25,29]hentriacont-1(28),2,4,6,8,16(30),17,19,21(29),22,24-undecaen-15,27-dione]
8.96	8.49	Cc1nn2c(C)c1-c1nccc3[nH]c(=O)c(cc13)-c1nc3c(nc(Cl)cc3[nH]1)N(C)CCCN(C)C(=O)C2C (centres unmarked) [Example 114, 7-chloro-10,14,16,19,30-pentamethyl-3,8,10,14,17,18,22,26,31-nonaazahexacyclo[19.6.2.1^2,5.1^17,20.0^4,9.0^25,29]hentriacont-1(28),2,4,6,8,18,20(30),21(29),22,24-decaen-15,27-dione]
8.72	7.72	[2H]C([2H])([2H])Oc1ccccc1-c1nccc2[nH]c(=O)c(-c3nc4c(C5CC5)nc(Cl)cc4[nH]3)cc12 [Example 39, 3-(6-chloro-4-cyclopropyl-1H-imidazo[4,5-c]pyridin-2-yl)-5-{2-[(^2H3)methyloxy]phenyl}-1,6-naphthyridin-2(1H)-one]
9.15	8.24	CCc1nc(Cl)cc2[nH]c(-c3cc4c(-c5cnc(C)cc5OC)nccc4[nH]c3=O)nc12 [Example 60, 3-(6-chloro-4-ethyl-1H-imidazo[4,5-c]pyridin-2-yl)-5-(4-methoxy-6-methylpyridin-3-yl)-1,6-naphthyridin-2(1H)-one]
8.70	7.89	CCCc1nc(Cl)cc2[nH]c(-c3cc4c(C)nccc4[nH]c3=O)nc12 [Example 20, 3-(6-chloro-4-propyl-1H-imidazo[4,5-c]pyridin-2-yl)-5-methyl-1,6-naphthyridin-2(1H)-one]
8.89	7.23	CCc1nc(Cl)cc2[nH]c(-c3cc4c(-c5c(C)cnn5C)nccc4[nH]c3=O)nc12 [Example 87, 3-(6-chloro-4-ethyl-1H-imidazo[4,5-c]pyridin-2-yl)-5-(1,4-dimethyl-1H-pyrazol-5-yl)-1,6-naphthyridin-2(1H)-one]
8.89	6.29	O=C1CS(=O)(=O)c2cccc(c2)-c2nccc3[nH]c(=O)c(cc23)-c2nc3c(nc(Cl)cc3[nH]2)N2CCCN1CC2 [Example 112, 7-chloro-17-thia-3,8,10,14,24,28,35-heptaazaheptacyclo[21.6.2.2^10,14.1^2,5.1^18,22.0^4,9.0^27,31]pentatriacont-1(30)2,4,6,8,18(32),19,21,23(31),24,26-undecaen-15,29-dione17,17-dioxide]
9.24	7.37	Cc1cc2[nH]c(=O)c(-c3nc4c(C5CCOCC5)nc(Cl)cc4[nH]3)cc2c(C)n1 [Example 18, 3-[6-chloro-4-(tetrahydro-2H-pyran-4-yl)-1H-imidazo[4,5-c]pyridin-2-yl]-5,7-dimethyl-1,6-naphthyridin-2(1H)-one]
9.00	7.49	COc1nc(C)ccc1-c1nccc2[nH]c(=O)c(-c3nc4c(C)nc(Cl)cc4[nH]3)cc12 [Example 67, 3-(6-chloro-4-methyl-1H-imidazo[4,5-c]pyridin-2-yl)-5-(2-methoxy-6-methylpyridin-3-yl)-1,6-naphthyridin-2(1H)-one]
9.01	7.62	[2H]C([2H])([2H])Oc1ccccc1-c1nccc2[nH]c(=O)c(-c3nc4c(N5CCNC(=O)C5)nc(Cl)cc4[nH]3)cc12 [Example 43, 3-[6-chloro-4-(3-oxopiperazin-1-yl)-1H-imidazo[4,5-c]pyridin-2-yl]-5-{2-[(^2H3)methyloxy]phenyl}-1,6-naphthyridin-2(1H)-one]
9.08	7.82	COc1cc(C(F)(F)F)ncc1-c1nccc2[nH]c(=O)c(-c3nc4c(C)nc(Cl)cc4[nH]3)cc12 [Example 64, 3-(6-chloro-4-methyl-1H-imidazo[4,5-c]pyridin-2-yl)-5-[4-methoxy-6-(trifluoromethyl)pyridin-3-yl]-1,6-naphthyridin-2(1H)-one]
8.82	7.80	CCc1nc(Cl)cc2[nH]c(-c3cc4c(-c5cc(C)n(C)n5)nccc4[nH]c3=O)nc12 [Example 151, 3-(6-chloro-4-ethyl-1H-imidazo[4,5-c]pyridin-2-yl)-5-(1,5-dimethyl-1H-pyrazol-3-yl)-1,6-naphthyridin-2(1H)-one methanesulfonate]
9.00	8.55	CCc1nc(Cl)cc2[nH]c(-c3cc4c(-c5ccccc5F)nccc4[nH]c3=O)nc12 [Example 27, 3-(6-chloro-4-ethy1-1H-imidazo[4,5-c]pyridin-2-y1)-5-(2-fluorophenyl)-1,6-naphthyridin-2(1H)-one]
9.28	8.92	Cc1ccccc1-c1nccc2[nH]c(=O)c(-c3nc4c(N5CCCC(N)C5)nc(Cl)cc4[nH]3)cc12 (centres unmarked) [Example 56, 3-[4-(3-aminopiperidin-1-yl)-6-chloro-1H-imidazo[4,5-c]pyridin-2-yl]-5-(2-methylphenyl)-1,6-naphthyridin-2(1H)-one hydrochloride]

Compound	pIC50 (human SMG1 enzyme)	pEC50 [1]
O=c1[nH]c2ccnc(-c3cccc(CN4C5CCC4COC5)c3)c2cc1-c1nc2cnc(Cl)cc2[nH]1 [Example 47, 3-(6-chloro-1H-imidazo[4,5-c]pyridin-2-yl)-5-[3-(3-oxa-8-azabicyclo[3.2.1]octan-8-ylmethyl)phenyl]-1,6-naphthyridin-2(1H)-one]	8.68	6.93
